Assay: recombinant barcode read abundance after kanamycin selection (control-corrected) (log10(CPM+1)); higher = more efficient recombination; sequences stand for … in AGTGCAGAGAAAATCGGCCAGTTTTCTCTGCCTGCAGTCCGCATGCCGT…AGATTTATGCAGCGGACTGCCTTTCTCCCAAAGTGATAAACCGGACAGTATCATGGACCGGTTTTCCCGGTAATCCGTATTTGCAAGGTTGGTTTCACT; site = the 11-nt target
How it was run: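 Pooled E. coli screen pairing targets with IS621 bridge RNA target-binding loops. Each oligo (promoter, target, barcode, J23119-driven first 104 bridge RNA bases) was Gibson-cloned into a vector with the remaining 73 bp and T7-inducible recombinase, then co-electroporated with a donor plasmid. Two replicates each were plated on chloramphenicol/ampicillin LB agar (control) or chloramphenicol/ampicillin/kanamycin with 0.1 mM IPTG. Recombination efficiency is recombinant-junction barcode counts as CPM, averaged, control-corrected, reported as log10(CPM+1).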
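Note: IS621 recombinase and bridge RNA in Escherichia coli cells.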

In order of falling “recombinant barcode read abundance (log10)” value:
1. GCTAGGGCTTGGGTTCTAACCTGTTGCAG (site GCTAGGGCTCT)  2.94
2. GCATGGACTTGGGTTCTAACCTGTTGCAG (site GCATGGACTCT)  2.24
3. GCTAAGACTTGGGTTCTAACCTGTTGCTG (site GCTAAGACTCA)  1.93
4. GCATGGACTTGGGTTCTAACCTGTTGCAG (site GCACGGACTCT)  1.92
5. GCGGATCCTTGGGTTCTAACCTGTTGCTA (site GCGGATCCTTA)  1.9
6. GCTAGCCCTTGGGTTCTAACCTGTTGCGG (site GCTAGCCCTCC)  1.83
7. GCTCAGACTTGGGTTCTAACCTGTTGCCT (site GCTCAGACTAG)  1.78
8. GCGTGGACTTGGGTTCTAACCTGTTGCCT (site GCGTGGACTAG)  1.61
9. GCTACCTCTTGGGTTCTAACCTGTTGCCT (site GCTACCTCTAG)  1.6
10. GCGGCTCCTTGGGTTCTAACCTGTTGCAT (site GCGGCTCCTAT)  1.55
11. GCGGGTACTTGGGTTCTAACCTGTTGCCT (site GCGGGTACTAG)  1.47
12. GCCGGGTCTTGGGTTCTAACCTGTTGCTT (site GCAGGGTCTAA)  1.26
13. GCATGACCTTGGGTTCTAACCTGTTGCAG (site GCATGACCTCT)  1.23
14. GCCGAGTCTTGGGTTCTAACCTGTTGCCT (site GCCGAGTCTAG)  1.03
15. GCCCGTCCTTGGGTTCTAACCTGTTGCCG (site GCCCGTCCTCG)  1
16. GCGTTACCTTGGGTTCTAACCTGTTGCCT (site GCGTTACCTAG)  0.97
17. GCGAACCCTTGGGTTCTAACCTGTTGCGG (site GCGAACCCTCC)  0.967
18. GCCTGCCCTTGGGTTCTAACCTGTTGCCT (site GCCTGCCCTAG)  0.892
19. GCATGGACTTGGGTTCTAACCTGTTGCAG (site GCAAGGACTCT)  0.878
20. GCCGGGTCTTGGGTTCTAACCTGTTGCTT (site GCCGGGTCTAA)  0.812
21. GCGTCCTCTTGGGTTCTAACCTGTTGCTT (site GCGTCCTCTAA)  0.636
22. GCCGAGTCTTGGGTTCTAACCTGTTGCTG (site GCCGAGTCTCA)  0.564
23. GCGCGGCCTTGGGTTCTAACCTGTTGCCT (site ACGCGGCCTAG)  0.56
24. GCCGGTCCTTGGGTTCTAACCTGTTGCCT (site GCCGGTCCTAG)  0.549
25. GCCGGTCCTTGGGTTCTAACCTGTTGCCT (site GCAGGTCCTAG)  0.522
26. GCTAGGGCTTGGGTTCTAACCTGTTGCAG (site GCAAGGGCTCG)  0.491
27. GCCGGTCCTTGGGTTCTAACCTGTTGCCT (site GCGGGTCCTAG)  0.451
28. GCGACATCTTGGGTTCTAACCTGTTGCCT (site GCGACATCTAG)  0.428
29. GCCAAGGCTTGGGTTCTAACCTGTTGCCT (site GCCAAGGCTAG)  0.407
30. GCCACGCCTTGGGTTCTAACCTGTTGCAG (site GCCTCGCCTCT)  0.389
31. GCGTGCCCTTGGGTTCTAACCTGTTGCTA (site GCGTGCCCTTA)  0.356
32. GCATGACCTTGGGTTCTAACCTGTTGCAG (site CACAATACTAG)  0.343
33. GCCGGGTCTTGGGTTCTAACCTGTTGCTT (site GCTGGGTCTAA)  0.337
34. GCGCGCCCTTGGGTTCTAACCTGTTGCTG (site GCGCGCCCTCA)  0.331
35. GCGGCTCCTTGGGTTCTAACCTGTTGCAT (site GCGTCTCCTAT)  0.331
36. GCCAACCCTTGGGTTCTAACCTGTTGCCT (site GCCAACCCTAG)  0.326
37. GCGTCCACTTGGGTTCTAACCTGTTGCTA (site GCGTGCCCTTA)  0.299
38. GCCAAGCCTTGGGTTCTAACCTGTTGCTG (site GCCAAGCCTCA)  0.257
39. GCTACCTCTTGGGTTCTAACCTGTTGCCT (site GTGACCTCTAG)  0.254
40. GCGCGGCCTTGGGTTCTAACCTGTTGCCT (site GCGCGGCCTAG)  0.253
41. GCATGGACTTGGGTTCTAACCTGTTGCAG (site GCAGGGACTCT)  0.241
42. GCGTGGACTTGGGTTCTAACCTGTTGCCT (site GCGTCTACTAG)  0.235
43. GCCGAGTCTTGGGTTCTAACCTGTTGCTG (site GCCGAGTCTTA)  0.219
44. GCGTCTACTTGGGTTCTAACCTGTTGCCT (site GCGTCTACTAG)  0.169
45. GCCGTAGCTTGGGTTCTAACCTGTTGCCT (site GGCGTAGCTAG)  0.163
46. GCGACATCTTGGGTTCTAACCTGTTGCCT (site TAAGATGCTCC)  0.162
47. GCGGATCCTTGGGTTCTAACCTGTTGCTA (site AGATTAGCTCG)  0.159
48. GCCATGTCTTGGGTTCTAACCTGTTGCTA (site GCCATGTCTTA)  0.145
49. GCCGAGTCTTGGGTTCTAACCTGTTGCCT (site GCCGAGTCTGT)  0.142
50. GCCGGTCCTTGGGTTCTAACCTGTTGCCT (site GCTGGTCCTAG)  0.14
51. GCTCAGACTTGGGTTCTAACCTGTTGCCT (site GCTCAGGCTAG)  0.132
52. GCCCGTCCTTGGGTTCTAACCTGTTGCCG (site CTCCGTCCTCG)  0.116
53. GCCACGCCTTGGGTTCTAACCTGTTGCAG (site GCCACGCCTCT)  0.115
54. GCCAACCCTTGGGTTCTAACCTGTTGCCT (site GCCAACCCTAA)  0.111
55. GCCGAGTCTTGGGTTCTAACCTGTTGCTG (site GCCGAGTCTAA)  0.11
56. GCGGGTACTTGGGTTCTAACCTGTTGCCT (site GCGTGTACTAG)  0.0951
57. GCTAGCCCTTGGGTTCTAACCTGTTGCGG (site GCGAGCCCTAC)  0.0935
58. GCTCAGACTTGGGTTCTAACCTGTTGCCT (site GCTCAGCCTAG)  0.0925
59. GCCGGGTCTTGGGTTCTAACCTGTTGCTT (site GCGGGGTCTAA)  0.092
60. GCCATGTCTTGGGTTCTAACCTGTTGCTA (site ACCTTGTCTTA)  0.0829
61. GCCTGCCCTTGGGTTCTAACCTGTTGCCT (site GACTGCCCTAG)  0.0828
62. GCGGCTCCTTGGGTTCTAACCTGTTGCAT (site GCGACTCCTAT)  0.0805
63. GCCAACCCTTGGGTTCTAACCTGTTGCCT (site GCCAACCCTAT)  0.0781
64. GCGTCCTCTTGGGTTCTAACCTGTTGCTT (site TACCGTCCTCC)  0.0776
65. GCGGCTCCTTGGGTTCTAACCTGTTGCAT (site GCGCCTCCTAT)  0.0751
66. GCGCGCCCTTGGGTTCTAACCTGTTGCTG (site GCGCGCCCTCC)  0.0616
67. GCGTCCACTTGGGTTCTAACCTGTTGCTA (site GCGTCCACTTA)  0.0606
68. GCCGTAGCTTGGGTTCTAACCTGTTGCCT (site GACGTAGCTAG)  0.0542
69. GCGTTACCTTGGGTTCTAACCTGTTGCCT (site GGGATACCTAG)  0.0535
70. GCCACGCCTTGGGTTCTAACCTGTTGCAG (site GCCGCGCCTCT)  0.053
71. GCCACGCCTTGGGTTCTAACCTGTTGCAG (site GCCCCGCCTCT)  0.0522
72. GCGTCTACTTGGGTTCTAACCTGTTGCCT (site GCGTGGACTAG)  0.051
73. GCGAACCCTTGGGTTCTAACCTGTTGCGG (site GCTAACCCTAC)  0.0412
74. GCGCGGCCTTGGGTTCTAACCTGTTGCCT (site CCGCGGCCTAG)  0.0374
75. GCCAAGGCTTGGGTTCTAACCTGTTGCCT (site AGTTTCACTTA)  0.0355
76. GCCTGCCCTTGGGTTCTAACCTGTTGCCT (site GTCTGCCCTAG)  0.0318
77. GCCGTAGCTTGGGTTCTAACCTGTTGCCT (site GCCGTAGCTAG)  0.0284
78. GCTAAGACTTGGGTTCTAACCTGTTGCTG (site GGTAAGACTCC)  0.0258
79. GCCTGCCCTTGGGTTCTAACCTGTTGCCT (site GGCTGCCCTAG)  0.0211
80. GCCAACCCTTGGGTTCTAACCTGTTGCCT (site GCCAACCCTAC)  0.0192
81. GCCAAGCCTTGGGTTCTAACCTGTTGCTG (site TCCAACCCTCA)  0.0182
82. GCGCGGCCTTGGGTTCTAACCTGTTGCCT (site TCGCGGCCTAG)  0.0177
83. GCATCGGCTTGGGTTCTAACCTGTTGCCT (site GCTTCGGCTAG)  0.0102
84. GCCGTAGCTTGGGTTCTAACCTGTTGCCT (site GTCGTAGCTAG)  0.00812
85. GCGTGCCCTTGGGTTCTAACCTGTTGCTA (site GCGTCCACTTA)  0.00781
86. GCCGAGTCTTGGGTTCTAACCTGTTGCTG (site GCCGAGTCTGA)  0

— the supplement of paper PMC11208160
